Measurements: the NIST ThermoML archive (doi:10.1016/j.fluid.2012.01.014)
± gives the expanded uncertainty stated by the source.

Assay: cn = amount concentration of the nth substance listed, in mol/dm3
Conditions: Ring tensiometer

CCCCCCCCCCCC[N+](C)(C)Cc1ccccc1.[Br-] [benzenemethanaminium, N-dodecyl-N,N-dimethyl, bromide] + O
surface tension liquid-gas [mN/m]
Conditions	293 K	303 K	313 K
c1 = 1e-07	72.4 ± 1.3	71.18 ± 1.3	69.58 ± 1.3
c1 = 5.01e-07	72.3 ± 1.3	71.09 ± 1.3	69.49 ± 1.3
c1 = 1e-06	71.6 ± 1.3	70.98 ± 1.3	69.38 ± 1.3
c1 = 5.01e-06	70.7 ± 1.3	70.22 ± 1.3	68.59 ± 1.3
c1 = 1e-05	69.6 ± 1.3	69.44 ± 1.3	67.78 ± 1.3
c1 = 5.01e-05	66.8 ± 1.3	65.88 ± 1.3	64.1 ± 1.2
c1 = 0.0001	64.3 ± 1.3	63.66 ± 1.2	61.81 ± 1.2
c1 = 0.000316	55.3 ± 1.2	54.19 ± 1.2	53.4 ± 1.2
c1 = 0.000501	51.7 ± 1.2	50.07 ± 1.2	49.15 ± 1.2
c1 = 0.001	46.2 ± 1.2	44.48 ± 1.1	43.37 ± 1.1
c1 = 0.002	41.1 ± 1.1	40 ± 1.1	38.93 ± 1.1
c1 = 0.00316	37.8 ± 1.1	36.73 ± 1.1	35.76 ± 1.1
c1 = 0.00398	36 ± 1.1	34.82 ± 1.1	33.92 ± 1.1
c1 = 0.00501	34.5 ± 1.1	33.11 ± 1.1	32.67 ± 1.1
c1 = 0.00708	34.5 ± 1.1	33.11 ± 1.1	32.67 ± 1.1
c1 = 0.01	34.4 ± 1.1	33.11 ± 1.1	32.67 ± 1.1

CCCCCCCCCCCCCCCC[N+](C)(C)C.[Br-] [N,N,N-trimethyl-1-hexadecanaminium bromide] + O
surface tension liquid-gas [mN/m]
Conditions	293 K	303 K	313 K
c1 = 1e-08	72.79 ± 1.3	71.2 ± 1.3	69.6 ± 1.3
c1 = 1e-07	72.78 ± 1.3	71.19 ± 1.3	69.59 ± 1.3
c1 = 5.01e-07	72.73 ± 1.3	71.16 ± 1.3	69.56 ± 1.3
c1 = 1e-06	72.66 ± 1.3	71.11 ± 1.3	69.52 ± 1.3
c1 = 2e-06	72.54 ± 1.3	71.03 ± 1.3	69.45 ± 1.3
c1 = 3.98e-06	72.31 ± 1.3	70.86 ± 1.3	69.3 ± 1.3
c1 = 6.31e-06	72.1 ± 1.3	70.69 ± 1.3	69.16 ± 1.3
c1 = 7.94e-06	71.91 ± 1.3	70.53 ± 1.3	69.02 ± 1.3
c1 = 1e-05	71.73 ± 1.3	70.37 ± 1.3	68.88 ± 1.3
c1 = 2e-05	70.97 ± 1.3	69.62 ± 1.3	68.22 ± 1.3
c1 = 3.02e-05	70.31 ± 1.3	68.93 ± 1.3	67.61 ± 1.3
c1 = 3.98e-05	69.72 ± 1.3	68.3 ± 1.3	67.04 ± 1.3
c1 = 5.01e-05	69.2 ± 1.3	67.72 ± 1.3	66.51 ± 1.3
c1 = 6.03e-05	68.81 ± 1.3	67.18 ± 1.3	66.01 ± 1.3
c1 = 7.08e-05	68.48 ± 1.3	66.67 ± 1.3	65.54 ± 1.3
c1 = 7.94e-05	68.06 ± 1.3	66.2 ± 1.3	65.1 ± 1.3
c1 = 9.12e-05	67.15 ± 1.3	65.75 ± 1.3	64.68 ± 1.3
c1 = 0.0001	66.41 ± 1.3	65.32 ± 1.3	64.28 ± 1.2
c1 = 0.0002	60.86 ± 1.2	60.52 ± 1.2	59.45 ± 1.2
c1 = 0.000302	54.74 ± 1.2	54.35 ± 1.2	53.95 ± 1.2
c1 = 0.000398	50.39 ± 1.2	50.02 ± 1.2	49.72 ± 1.2
c1 = 0.000501	47.02 ± 1.1	46.83 ± 1.1	46.15 ± 1.1
c1 = 0.000603	44.27 ± 1.1	44.12 ± 1.1	43.53 ± 1.1
c1 = 0.000708	41.94 ± 1.1	41.82 ± 1.1	41.22 ± 1.1
c1 = 0.000794	39.92 ± 1.1	39.75 ± 1.1	39 ± 1.1
c1 = 0.000891	38.15 ± 1.1	38.01 ± 1.1	37.25 ± 1.1
c1 = 0.000912	37.9 ± 1.1	37.8 ± 1.1	37 ± 1.1
c1 = 0.001	37.9 ± 1.1	37.2 ± 1.1	36.4 ± 1.1
c1 = 0.002	37.8 ± 1.1	37.14 ± 1.1	36.4 ± 1.1
